According to patent EP0705603A1, “Use of non-toxic cysteine sulfoxide derivatives in the treatment of cancer or for enhancing the T-cell count” (priority 1994, dated 1996):

Experiment: Toxicity after intravenous administration to patients
Format: in vivo, patient
Method: Aqueous solutions of t-butyl hydroperoxide are prepared by dissolving 50 ml of a 70% aqueous solution of t-butyl hydroperoxide in 1 litre of normal (0.9%) saline. 15-30 ml of this solution is given intravenously over a period of up to about 15 minutes.
Aqueous solutions of methyl, ethyl, propyl and butyl cysteine sulfoxide are prepared by dissolving 100 gram of the respective sulfoxide in 1 litre of normal (0.9%) saline. 30-60 ml of this solution (delivering an approximate […] dose of the sulfoxide) is given intravenously.
An aqueous solution of L-cystine is prepared by first dissolving 80 grams of N-methyl-D-glucamine in 1 litre of normal (0.9%) saline and the dissolving in 40 g of L-cystine. 50 to 60 ml of the solution (delivering an approximately 2 g dose of cystine) is given intravenously.
An aqueous solution of oxidised glutathione is prepared by dissolving 40 grams in 1 litre of normal (0.9%) saline. 50-60 ml of this solution (delivering an approximately 2 g dose of oxidised glutathione) is given intravenously.
The t-butyl hydroperoxide solution is administered by intravenous infusion over a period of up to about 15 minutes. This is then followed immediately by intravenous infusion of the sulfoxide, optionally with cystine and/or oxidised glutathione solutions, and then (within three minutes) Ultra High Frequency microwave radiation is commenced and is delivered over the next 20 - 30 minutes. 1 or 2 rest intervals of 2 to 3 minutes each are permitted during this application. Three such treatment sessions may be undertaken per day.
No immediate or late changes in blood pressure, renal or liver function, electrolytes or haematology have been seen from the method.

Structure (SMILES) | symptoms suggestive of any toxicity (human, in vivo, iv) | further results
C=CC[S+]([O-])CC(N)C(=O)O (stereo not drawn) [allyl cysteine sulfoxide] | No symptoms suggestive of any toxicity | 
C[S+]([O-])CC(N)C(=O)O (stereo not drawn) [methyl cysteine sulfoxide] | No symptoms suggestive of any toxicity | 
CCCC[S+]([O-])CC(N)C(=O)O (stereo not drawn) [butyl cysteine sulfoxide] | No symptoms suggestive of any toxicity | 
CC(C)(C)OO [t-butyl hydroperoxide] |  | volume of saline solution of oxidising agent that can safely and effectively be administered (70% t-butyl hydroperoxide in water diluted in normal (0.9%) saline, intravenous, over about 5 minutes): 60 mL; symptoms suggestive of any toxicity (after the intravenous administration): No symptoms suggestive of any toxicity
CCC[S+]([O-])CC(N)C(=O)O (stereo not drawn) [propyl cysteine sulfoxide] | No symptoms suggestive of any toxicity | 
N[C@@H](CSSC[C@H](N)C(=O)O)C(=O)O [L-cystine] | No symptoms suggestive of any toxicity | NOAEL (human, in vivo, iv): > 100 mg/kg
CC[S+]([O-])CC(N)C(=O)O (stereo not drawn) [ethyl cysteine sulfoxide] | No symptoms suggestive of any toxicity | 
